Results taken from patent US20040024543A1, “Methods and systems for analyzing complex biological systems” (priority 2001, published 2004).
Entries after “also recorded” stand apart in the source; their conditions may differ.

Experiments:
[1] = tested on: Arabidopsis thaliana; assay: SOA1 phenotypic analysis of herbicide-treated Arabidopsis (MIC, Tmic, leaf traits); type: in vivo; conditions: for characteristic morphological symptoms: SOA1, in words; for tMic (Dev.): SOA1, coded score of time to full range of symptoms at MIC
[2] = tested on: Arabidopsis thaliana; assay: MOA1 phenotypic profiling of sprayed Arabidopsis (symptom scores, cluster analysis); type: in vivo; conditions: MOA1, in words
[3] = tested on: Saccharomyces cerevisiae wild type strain BY4743; assay: AF1 yeast gene expression analysis (microarray) after antifungal drug treatment; type: cell-based; conditions: 2×MIC, two hours
Method: Saccharomyces cerevisiae wild type strain BY4743 was purchased from American Type Culture Center (ATCC, Manassas, Va.). The yeast strain was grown in YPD or SD media. […] The cultures started from fresh single colonies were grown in 1.0 ml YPD overnight at 30° C. […] The OD600 was adjusted to 1.0 with YPD media, then 2.0 ml of each was inoculated into three 250 ml flasks, each containing 50 ml of SD media. […] The cells were kept growing for another two hours, then collected by centrifugation at 4000 rpm for 5 minutes at 4° C. Pellets were washed once with ice-cold water, then were lyophilized overnight at 4° C. […] Tubes were vortexed for 30 seconds, then incubated for 10 minutes at room temperature (RT). […] Tubes were incubated for 10 minutes at RT. Samples were centrifuged for 20 minutes as before. Pellets were washed with 400 μl 70% ethanol and centrifuged for 10 minutes as before. The pellet was then dissolved in 100 μl nuclease-free water. RNA quality was determined using the Bioanalyzer 2100 and the RNA 6000 assay (Agilent Technologies, Palo Alto, Calif.) according to manufacturer's instructions. RNA concentrations were determined spectrophotometrically by measuring the absorption at 260 nm in an Ultrospec 2000 (Pharmacia Biotech, Piscataway, N.J.). […] Labeled cRNAs were evaluated using the RNA 6000 assay on the Agilent Bioanalyzer 2100. Labeled cRNA concentrations were determined spectrophotometrically by measuring the absorption at 260 nm in an Ultrospec 2000 (Pharmacia Biotech, Piscataway, N.J.). […] Each pair of samples to be hybridized were independently labeled and hybridized utilizing a fluor reversal for a total of two hybridizations per sample pair. […] Each feature was determined from an array's associated pattern file and a detection algorithm. Intensity values for each feature were determined after subtracting background derived from an average of negative control features. […] Data was evaluated after combining results from fluor reversal replicate hybridizations. […]

[4] = tested on: Arabidopsis thaliana; assay: MOA1 biochemical (metabolite) profiling by LC-MS and GC-MS of sprayed Arabidopsis; conditions: for stress-related (commonly regulated) metabolites: MOA1, 20 min and 1 hour after spraying
[5] = tested on: Arabidopsis thaliana; assay: MOA1 gene expression profiling (22,000 gene arrays) of sprayed Arabidopsis; conditions: regulated genes at 1 hr compared with internal list of essential genes
[6] = tested on: Magnaporthe grisea; type: cell-based
[7] = MOA1, early time points / after one hour

| SMILES | characteristic morphological symptoms [1] | observed phenotype [2] | stress-related (commonly regulated) metabolites [4] | No. of Lethal Genes Altered [5] | other results |
| --- | --- | --- | --- | --- | --- |
| Nc1nc[nH]n1 [Amitrole] | leaf bleaching and leaf enlargement | chlorosis and not true bleaching |  |  |  |
| C[C@@H]1[C@H](O)[C@@H](C)/C=C/C=C/C=C/C=C/C=C/C=C/C=C/[C@H](O[C@@H]2O[C@H](C)[C@@H](O)[C@H](N)[C@@H]2O)C[C@@H]2O[C@](O)(C[C@@H](O)C[C@@H](O)[C@H](O)CC[C@@H](O)C[C@@H](O)CC(=O)O[C@H]1C)C[C@H](O)[C@H]2C(=O)O [Amphoteracin B] |  |  |  |  | # Transripts perturbed by treatment ([3]; P < 0.05): 4363; # Transripts perturbed by treatment ([3]; P < 0.1): 4652 |
| CCSC(=O)N(CC(C)C)CC(C)C [Butylate] |  | neither showed a strong herbicidal phenotype | neither butylate nor chlorpropham treatment resulted in many changes in these commonly regulated metabolites |  |  |
| CC(C)OC(=O)Nc1cccc(Cl)c1 [Chloropropham] |  | neither showed a strong herbicidal phenotype | neither butylate nor chlorpropham treatment resulted in many changes in these commonly regulated metabolites |  |  |
| COc1nc(C)nc(NC(=O)NS(=O)(=O)c2ccccc2Cl)n1 [Chlorsulfuron] | anthocyanin accumulation in the older leaves accompanied by chlorosis of the newly emerging leaves |  |  | 8 |  |
| CP(=O)(O)CCC(N)C(=O)O (stereo not shown) [Glufosinate] | Chlorosis and leaf curling |  | Only a few, if any | 10 | tMic (Dev.) [1]: 1; nitrogen source utilization of M. grisea ([6]; in the presence of the compound): only able to utilize glutamine and glutamate as nitrogen sources |
| O=C(O)CNCP(=O)(O)O [Glyphosate] | anthocyanin accumulation in the older leaves accompanied by chlorosis of the newly emerging leaves |  |  |  | tMic (Dev.) [1]: 2; growth of M. grisea with ammonium or glutamine provided [6]: Little growth defect; growth inhibition and remediation ([6]; 1.0 mg/ml): remediated by inclusion of aromatic amino acids; tyrosine level relative to the control [4, 7]: decreased |
| CS(=O)(=O)c1cc(C(F)(F)F)ccc1C(=O)c1cnoc1C1CC1 [Isoxaflutole] |  |  |  | 15 | Alpha-tocopherol levels relative to the control ([4]; MOA1, early time points): not significantly changed; phenylalanine level relative to the control [4, 7]: up-regulated; also recorded: began to accumulate; tyrosine level relative to the control [4, 7]: up-regulated; also recorded: began to accumulate |
| CC[C@@H]([C@H](C)O)n1ncn(-c2ccc(N3CCN(c4ccc(OC[C@@H]5CO[C@@](Cn6cncn6)(c6ccc(F)cc6F)C5)cc4)CC3)cc2)c1=O [Posaconazole] |  |  |  |  | # Transripts perturbed by treatment ([3]; P < 0.05): 690 |
